Reference: patent US7407988B2, “Carbamic acid compounds comprising a sulfonamide linkage as HDAC inhibitors” (Topotarget UK Limited, priority 2000, dated 2008)
Read-outs that look alike come from different tables or passages of the source.

What was measured:
HDAC (HeLa cell extract) = test: Primary assay: deacetylase activity, HeLa cell extract as source of HDAC; format: biochemical, human
Description: (§1) Briefly, this assay relies on the release of radioactive acetate from a radioactively labelled histone fragment by the action of HDAC enzyme. Test compounds, which inhibit HDAC, reduce the yield of radioactive acetate. Signal (e.g., scintillation counts) measured in the presence and absence of a test compound provide an indication of that compound's ability to inhibit HDAC activity. Decreased activity indicates increased inhibition by the test compound.
(§2) The histone fragment was an N-terminal sequence from histone H4, and it was labelled with radioactively labelled acetyl groups using tritiated acetylcoenzyme A (coA) in conjunction with an enzyme which is the histone acetyltransferase domain of the transcriptional coactivator p300. […] The acetylated peptide was then separated from free acetyl coA by size exclusion chromatography on Sephadex G-15 (Sigma G-15-120), using distilled H2O as the mobile phase.
(§3) After purification of the radiolabelled histone fragment, it was incubated with a source of HDAC (e.g., an extract of HeLa cells (a rich source of HDAC), recombinantly produced HDAC1 or HDAC2) and any released acetate was extracted into an organic phase and quantitatively determined using scintillation counting. By including a test compound with the source of HDAC, that compound's ability to inhibit the HDAC was determined.
Two cell volumes of extraction buffer were used, and particulate material was centrifuged out (20800 g, 4° C., 10 min). The supernatant extract having deacetylase activity was aliquotted and frozen for storage.
(§4) A source of HDAC (e.g., 2 μL of crude HeLa extract, 5 μL of HDAC1 or HDAC2; in elution buffer, as above) was incubated with 3 μL of radioactively labelled peptide along with appropriate dilutions of candidate compounds (1.5 μL) in a total volume of 150 μL of buffer (20 mM Tris pH 7.4, 10% glycerol). The reaction was carried out at 37° C. for one hour, after which the reaction was stopped by adding 20 μL of 1 M HCl/0.4 M sodium acetate. […] Radioactivity was measured using a Tri-Carb 21 00TR Liquid Scintillation Analyzer (Packard).
(§5) Percent activity (% activity) for each test compound was calculated as: % activity={(S^C−B)/(S°−B)}×100 wherein S^C denotes signal measured in the presence of enzyme and the compound being tested, S° denotes signal measured in the presence of enzyme but in the absence of the compound being tested, and B denotes the background signal measured in the absence of both enzyme and compound being tested.

HeLa cells = test: Secondary assay: cell proliferation WST-1, HeLa; format: cell-based; conditions: Homo sapiens, read-out: Cell Proliferation Inhibition WST-1 (IC50 unless otherwise specified) HeLa
[1] = system: K11 HPV E7 transformed human keratinocyte line; test: Secondary assay: cell proliferation WST-1, K11; format: cell-based; conditions: Homo sapiens, Keratinocyte, Table 2, 48 h, read-out: Cell Proliferation Inhibition WST-1 (IC50 unless otherwise specified) K11
[2] = system: NHEK-Ad primary human adult keratinocyte line; test: Secondary assay: cell proliferation WST-1, NHEK-Ad; format: cell-based; conditions: Homo sapiens, Keratinocyte, 48 h, read-out: Cell Proliferation Inhibition WST-1 (IC50 unless otherwise specified) NHEK-AD
JURKAT human T-cell line = test: Secondary assay: cell proliferation WST-1, Jurkat; format: cell-based; conditions: Homo sapiens, Table 2, 48 h, read-out: Cell Proliferation Inhibition WST-1 (IC50 unless otherwise specified) Jurkat
human HDAC1 = molecular target: T1, human HDAC1 (Homo sapiens, UniProt Q13547); test: Primary assay: deacetylase activity, recombinantly produced HDAC1; format: biochemical; conditions: Table 1; recombinant HDAC1; read-out: HDAC Inhibition (IC50 unless otherwise specified) HDAC1
T1 construct: Full length human HDAC1 was cloned by PCR; Flag (C); implied by Ni-NTA purification) (N); made in house; host or cells: SF9 insect cells (baculovirus)
Description: as §1, §2, §3
Full length human HDAC1 was cloned by PCR using a λgt11 Jurkat cDNA library (Clontech-HL5012b). […] A second PCR was carried out in order to amplify a fragment containing the HDAC1 sequence fused to the Flag tag.
Amplification of recombinant viruses was performed according to the Pharmingen Instruction Manual.
For protein production, 2×10^7 cells were infected with the appropriate recombinant virus for 3 days. Cells were then harvested and spun at 3,000 rpm for 5 minutes. They were then washed twice in PBS and resuspended in 2 pellet volumes of lysis buffer (25 mM HEPES pH 7.9, 0.1 mM EDTA, 400 mM KCl, 10% glycerol, 0.1% NP-40, 1 mM AEBSF). […]
as §4, with “glycerol).” for “glycerol). The reaction was carried out at 37° C. for one hour, after which the reaction was stopped by adding 20 μL of 1 M HCl/0.4 M sodium acetate.”
as §5

human HDAC2 = molecular target: T2, human HDAC2 (Homo sapiens, UniProt Q92769); test: Primary assay: deacetylase activity, recombinantly produced HDAC2; format: biochemical; conditions: Table 1; recombinant HDAC2; read-out: HDAC Inhibition (IC50 unless otherwise specified) HDAC2
T2 construct: Full length human HDAC2 was subcloned; Flag (carried over from the HDAC2-pFlag-CTC construct; inferred by analogy to HDAC1) (C); implied by Ni-NTA purification) (N); made in house; host or cells: SF9 insect cells (baculovirus)

[3] = Table 1, read-out: HDAC Inhibition (IC50 unless otherwise specified) HeLa
[4] = comparative tables, HDAC inhibition, read-out: HeLa IC50

T1 sequence (Q13547 whole entry): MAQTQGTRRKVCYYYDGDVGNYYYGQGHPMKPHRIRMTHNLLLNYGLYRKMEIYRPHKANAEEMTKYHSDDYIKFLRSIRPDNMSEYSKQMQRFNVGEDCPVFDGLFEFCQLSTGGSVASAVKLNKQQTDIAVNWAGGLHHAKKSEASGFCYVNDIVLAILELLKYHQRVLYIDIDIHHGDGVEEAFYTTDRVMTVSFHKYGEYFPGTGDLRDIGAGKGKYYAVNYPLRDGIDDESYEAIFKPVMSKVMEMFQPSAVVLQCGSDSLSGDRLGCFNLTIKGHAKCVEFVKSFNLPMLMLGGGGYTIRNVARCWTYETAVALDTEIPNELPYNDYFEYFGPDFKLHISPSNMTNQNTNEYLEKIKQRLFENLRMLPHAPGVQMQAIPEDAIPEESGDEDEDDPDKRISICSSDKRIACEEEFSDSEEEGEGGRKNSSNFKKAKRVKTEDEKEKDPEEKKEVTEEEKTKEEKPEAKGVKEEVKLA
T2 sequence (Q92769 whole entry): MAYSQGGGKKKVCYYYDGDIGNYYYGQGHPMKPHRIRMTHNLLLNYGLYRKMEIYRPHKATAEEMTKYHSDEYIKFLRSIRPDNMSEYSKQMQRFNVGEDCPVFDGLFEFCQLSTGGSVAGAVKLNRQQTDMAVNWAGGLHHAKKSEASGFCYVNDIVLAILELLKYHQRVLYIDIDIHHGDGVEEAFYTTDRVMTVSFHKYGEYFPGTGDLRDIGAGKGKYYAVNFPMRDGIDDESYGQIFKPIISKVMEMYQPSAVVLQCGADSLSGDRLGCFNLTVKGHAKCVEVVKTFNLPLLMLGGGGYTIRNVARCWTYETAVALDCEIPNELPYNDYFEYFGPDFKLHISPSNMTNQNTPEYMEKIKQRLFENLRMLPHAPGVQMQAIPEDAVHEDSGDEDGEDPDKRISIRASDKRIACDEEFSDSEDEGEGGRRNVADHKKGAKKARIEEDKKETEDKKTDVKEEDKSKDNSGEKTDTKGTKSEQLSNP

| Compound | IC50 (HDAC (HeLa cell extract); [3]) | IC50 (HDAC (HeLa cell extract); [4]) | IC50 (HeLa cells; 48 h) | IC50 [1] | IC50 [2] | IC50 (JURKAT human T-cell line) | melting point | IC50 (human HDAC1) | IC50 (HeLa cells; Table 2, 48 h) | IC50 (human HDAC2) | IC50 ([2]; Table 2, NHEK-AD) |
| --- | --- | --- | --- | --- | --- | --- | --- | --- | --- | --- | --- |
| O=C(/C=C/C#Cc1cccc(NS(=O)(=O)c2ccccc2)c1)NO [Oxamflatin, (2E)-5-[3-[(phenylsulfonyl)amino]phenyl]-pent-2-en-4-ynohydroxamic acid, reference compound] | 0.038 µM | 0.038 µM | 1.1 µM | 4.56 µM | 3.53 µM | 0.26 µM |  |  |  |  |  |
| Cc1ccc(S(=O)(=O)Nc2cccc(/C=C/C(=O)NO)c2)cc1 [PX089342, N-Hydroxy-3-[3(toluene-4-sulfonylamino)-phenyl]-acrylamide] | 0.125 µM | 0.125 µM |  |  |  |  | 147 °C | 0.05 µM | 4.1 µM |  |  |
| O=C(/C=C/c1cccc(NS(=O)(=O)c2ccccc2)c1)NO [PX089344, 3-(3-Benzenesulfonylamino-phenyl)N-hydroxy-acrylamide] | 0.089 µM | 0.089 µM |  |  |  |  | 172 °C |  | 8.9 µM | 0.172 µM |  |
| CN(c1ccccc1)S(=O)(=O)c1cccc(/C=C/C(=O)NO)c1 [PX105685] |  |  | 7.3 µM |  |  |  |  |  |  | 0.6 µM |  |
| COc1ccc(NS(=O)(=O)c2cccc(/C=C/C(=O)NO)c2)cc1 [PX105844] | 0.015 µM |  |  |  |  |  | 186 °C | 0.029 µM | 0.4 µM |  |  |
| Cc1ccc(NS(=O)(=O)c2cccc(/C=C/C(=O)NO)c2)cc1 [PX106508] | 0.031 µM | 0.031 µM |  | 3.5 µM |  | 0.3 µM | 200 °C | 0.09 µM | 1.6 µM |  |  |
| O=C(/C=C/c1cccc(S(=O)(=O)NCCc2ccccc2)c1)NO [PX106512] | 0.022 µM | 0.022 µM |  | 2.4 µM |  | 0.21 µM | 114 °C | 0.458 µM | 1.9 µM |  |  |
| O=C(/C=C/c1cccc(S(=O)(=O)Nc2cccc3ccccc23)c1)NO [PX117228, N-Hydroxy-3-[3-(naphthalen-1-ylsulfamoyl)-phenyl]-acrylamide] | 0.007 µM | 0.007 µM | 0.8 µM | 1.4 µM | 1.2 µM | 0.15 µM | 180 °C |  |  |  |  |
| O=C(/C=C/c1cccc(S(=O)(=O)Nc2ccc3ccccc3c2)c1)NO [PX117445, N-Hydroxy-3-[3-(naphthalen-2-ylsulfamoyl)-phenyl]-acrylamide] | 0.002 µM |  |  | 1.2 µM |  | 0.13 µM | 164 °C |  | 1.1 µM |  | 0.75 µM |
